# According to ChEMBL document CHEMBL1141115, “Synthesis of leukotriene B4 antagonists labeled with In-111 or Tc-99m to image infectious and inflammatory foci” (J Med Chem, 2005):
# pIC50: −log10 of the molar value.
# Tests used:
# [1] = target: T1, Leukotriene B4 receptor 1 (Homo sapiens, UniProt Q15722); assay: Inhibitory concentration against human leukotriene B4 receptor using competing agent [3H]-LTB4 as radioligand in pH 7.2 buffer, for 1 hr at 37 degree C
# [2] = target: T1, Leukotriene B4 receptor 1; assay: Inhibitory concentration against human leukotriene B4 receptor using competing agent [111In]-(17)] as radioligand in pH 7.2 buffer, for 1 hr at 37 degree C; (n=2)
# [3] = target: T1, Leukotriene B4 receptor 1; assay: Inhibitory concentration against human leukotriene B4 receptor using competing agent [3H]-LTB4 as radioligand in pH 7.2 buffer upon incubation for 1 hr at 37 degree C; (n=4)
# [4] = target: T1, Leukotriene B4 receptor 1; assay: Inhibitory concentration against human leukotriene B4 receptor using competing agent [3H]-LTB4 as radioligand in pH 7.2 buffer, for 1 h at 37 degree C; (n=2)
# T1 sequence (Q15722 whole entry): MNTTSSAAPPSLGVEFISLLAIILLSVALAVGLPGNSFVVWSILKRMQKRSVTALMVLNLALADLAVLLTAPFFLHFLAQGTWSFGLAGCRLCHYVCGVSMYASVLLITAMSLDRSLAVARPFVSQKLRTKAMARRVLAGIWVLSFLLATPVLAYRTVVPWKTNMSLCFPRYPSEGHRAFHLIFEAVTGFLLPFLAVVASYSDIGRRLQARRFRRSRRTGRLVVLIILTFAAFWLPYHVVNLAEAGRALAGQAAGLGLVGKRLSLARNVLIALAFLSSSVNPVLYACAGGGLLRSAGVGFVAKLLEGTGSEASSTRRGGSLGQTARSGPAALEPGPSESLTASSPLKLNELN
Compound,pIC50 [2],pIC50 [4],further results
CC(C)(CCCCOc1cc(-c2ccccc2)cc(-c2ccccc2)n1)c1nnn[nH]1,–,–,pIC50 [1]: 7.70
CC(C)(CCCCOc1cc(-c2ccccc2)cc(-c2ccccc2)n1)c1nnnn1CCCCC(=O)NCCCOCCOCCOCCCNC(=O)c1ccc(N/N=C/c2ccccc2S(=O)(=O)O)nc1,7.36,–,pIC50 [3]: 7.35
CC(C)(CCCCOc1cc(-c2ccccc2)cc(-c2ccccc2)n1)c1nnnn1CCCCC(=O)NCCCOCCOCCOCCCNC(=O)[C@H](CS(=O)(=O)O)NC(=O)[C@H](CS(=O)(=O)O)NC(=O)[C@H](CS(=O)(=O)O)NC(=O)[C@H](CS(=O)(=O)O)NC(=O)c1ccc(N/N=C/c2ccccc2)nc1,7.80,–,–
CC(C)(CCCCOc1cc(-c2ccccc2)cc(-c2ccccc2)n1)c1nnnn1CCCCC(=O)NCCCOCCOCCOCCCNC(=O)[C@H](CS(=O)(=O)O)NC(=O)[C@H](CS(=O)(=O)O)NC(=O)[C@H](CS(=O)(=O)O)NC(=O)[C@H](CS(=O)(=O)O)NC(=O)CC[C@H](N)C(=O)N[C@@H](CS(=O)(=O)O)C(=O)N[C@@H](CS(=O)(=O)O)C(=O)N[C@@H](CS(=O)(=O)O)C(=O)N[C@@H](CS(=O)(=O)O)C(=O)NCCCOCCOCCOCCCNC(=O)CCCCn1nnnc1C(C)(C)CCCCOc1cc(-c2ccccc2)cc(-c2ccccc2)n1,–,8.10,–
CC(C)(CCCCOc1cc(-c2ccccc2)cc(-c2ccccc2)n1)c1nnnn1CCCCC(=O)NCCCOCCOCCOCCCNC(=O)[C@H](CS(=O)(=O)O)NC(=O)[C@H](CS(=O)(=O)O)NC(=O)[C@H](CS(=O)(=O)O)NC(=O)[C@H](CS(=O)(=O)O)NC(=O)CC[C@H](NC(=O)CN(CCN(CCN(CC(=O)O)CC(=O)O)CC(=O)O)CC(=O)O)C(=O)N[C@@H](CS(=O)(=O)O)C(=O)N[C@@H](CS(=O)(=O)O)C(=O)N[C@@H](CS(=O)(=O)O)C(=O)N[C@@H](CS(=O)(=O)O)C(=O)NCCCOCCOCCOCCCNC(=O)CCCCn1nnnc1C(C)(C)CCCCOc1cc(-c2ccccc2)cc(-c2ccccc2)n1,7.52,7.27,–
CC(C)(CCCCOc1cc(-c2ccccc2)cc(-c2ccccc2)n1)c1nnnn1CCCCC(=O)NCCCOCCOCCOCCCNC(=O)[C@H](CS(=O)(=O)O)NC(=O)[C@H](CS(=O)(=O)O)NC(=O)[C@H](CS(=O)(=O)O)NC(=O)[C@H](CS(=O)(=O)O)NC(=O)CC[C@H](NC(=O)c1ccc(N/N=C/c2ccccc2)nc1)C(=O)N[C@@H](CS(=O)(=O)O)C(=O)N[C@@H](CS(=O)(=O)O)C(=O)N[C@@H](CS(=O)(=O)O)C(=O)N[C@@H](CS(=O)(=O)O)C(=O)NCCCOCCOCCOCCCNC(=O)CCCCn1nnnc1C(C)(C)CCCCOc1cc(-c2ccccc2)cc(-c2ccccc2)n1,6.64,–,–
